Experimental data taken from US9504728B2, “Dosage form” (priority 2011, dated 2016).
Read-outs that look alike come from different tables or passages of the source.

Tests used:
in vivo = conditions: CD1 mice; for AUC(0-t) / bioavailability: male, mouse; for bioavailability: read-out: Oral bioavailability F %
Procedure: For sanglifehrins, whole blood is analysed. Compounds are formulated in 5% ethanol/5% cremophor EL/90% saline for both p.o. and i.v. administration. Groups of 3 male CD1 mice are dosed with either 1 mg/kg i.v. or 5 or 10 mg/kg p.o. Blood samples (40 μL) are taken via saphenous vein, pre-dose and at 0.25, 0.5, 2, 8, and 24 hours, and diluted with an equal amount of dH20 and put on dry ice immediately. Samples are stored at −70° C. until analysis. The concentration of the sanglifehrin or parent compound in the sample is determined via LCMS as follows: 20 μL of blood:H2O (1:1, v/v)/PK sample is added with 20 μL Internal standard (hydroxyl macrocycle, 6) at 100 ng/mL, 20 μL working solution/MeOH and 150 μL of ACN, vortexed for 1 minute at 1500 rpm, and centrifuged at 12000 rpm for 5 min. The supernatant is then injected into LC-MS/MS. The time-course of blood concentrations is plotted and used to derive area under the whole blood concentration-time curve (AUC—which is directly proportional to the total amount of unchanged drug that reaches the systemic circulation). These values are used to generate PK parameters where possible.
To assess the pharmacokinetics of the compounds in an in vivo setting, compounds were dosed po at 10 or 5 mg/kg and iv at 1 mg/kg to groups of CD1 mice.
Pharmacokinetic analysis was carried out as described in the general methods.

[1] = In vitro stability in acidic and neutral conditions (SGF, SGF + pepsin, SGF + denatured pepsin, PBS); conditions: for PBS % remaining after 1 hour: phosphate buffered saline pH 7.3, 37° C.; for SGF % remaining after 1 hour: simulated gastric fluid pH 1.2, 37° C.
Procedure: 1 mM DMSO solutions were made of compounds to be tested and mixed on vibrax to ensure compound was fully dissolved.
PBS Solution: 2 tablets of Phosphate Buffered Saline (Dulbecco A) tablets (Oxoid, BR0014G) were added to 200 mL distilled water and stirred to mix. pH was measured at 7.28.
Simulated Gut Fluid (SGF): 300 uL conc. HCl added to 50 mL distilled water and mixed. pH was measured at 1.21.
Simulated gut fluid+pepsin: 300 uL conc. HCl and 1 g of Pepsin (from Porcine gastric mucosa, Sigma) were added to 50 mL distilled water and mixed by stirring for 1 hr.
SGF+denatured pepsin: 900 uL of Acidic Enzyme Solution taken into a 2 mL eppendorf tube and heated at 99° C. in a water bath for 30 mins.
Acidic Enzyme and Acidic Denatured Enzyme solutions were made fresh each day, whereas PBS and Acid Solutions were stored at 4° C. when not in use.
Eppendorfs containing 900 uL of test solutions were pre-warmed in a 37° C. water bath. At t=0, 100 uL of test compound (1 mM DMSO solution) was added to test solution and mixed. 100 uL was taken immediately and mixed into 900 uL acetonitrile in an amber glass LC vial. 50-100 uL of the sample was analysed by HPLC, integrating the compounds' UV peaks to determine degradation over time. Sanglifehrin A was measured at its λmax of 240 nm; 33, 45 and 24 were measured at their λmax of 276 nm.
Further samples were taken in the same manner for analysis at approximately t=0.33, 0.67, 1.0, 2.67, and 4.67 hr. A final analysis was run at t=>30 to confirm end point of reaction.
Controls of test compound DMSO solutions in 900 uL DMSO were also prepared and treated in the same manner, with samples analysed at t=0, t=8 and t=>30 hr. Half lives were calculated from the data generated.
Stability of compounds was analysed in simulated gastric fluid, pH1.2 (SGF) and phosphate buffered saline, pH7.3 (PBS).

cyclophilin A (CypA) = cyclophilin A (CypA) (Homo sapiens, UniProt P62937); conditions: cited from earlier work
calcineurin = conditions: in words; Zenke et al. 2001; cited from earlier work
[2] = iv, whole blood, 1 mg/kg i.v., read-out: AUClast after 1 mg/kg i.v. dose
[3] = po, whole blood, 10 mg/kg p.o., read-out: AUClast after 10 mg/kg p.o. dose
[4] = whole blood, po, p.o. 10 or 5 mg/kg vs i.v. 1 mg/kg
[5] = in vivo, iv, whole blood, 1 mg/kg i.v., read-out: AUClast after 1 mg/kg i.v. dose
[6] = in vivo, po, p.o. 10 or 5 mg/kg vs i.v. 1 mg/kg
[7] = in vivo, po, whole blood, 10 mg/kg p.o., read-out: AUClast after 10 mg/kg p.o. dose

cyclophilin A (CypA), sequence (P62937 whole entry): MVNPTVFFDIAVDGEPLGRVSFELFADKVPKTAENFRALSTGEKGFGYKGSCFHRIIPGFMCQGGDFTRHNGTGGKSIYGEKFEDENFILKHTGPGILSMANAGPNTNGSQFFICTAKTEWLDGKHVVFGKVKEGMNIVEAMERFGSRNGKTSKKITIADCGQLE

| AUC(0-t) (in vivo; [2]) [ng·h/mL] | AUC(0-t) (in vivo; [3]) [ng·h/mL] | bioavailability (in vivo; [4]) [%] | Structure (SMILES) | also measured |
| --- | --- | --- | --- | --- |
| 1940 | 453 | 2.4 | CC(=O)CC[C@H]1C(=O)N[C@@H](C(C)C)C(=O)N[C@@H](Cc2cccc(O)c2)C(=O)N2CCCC(N2)C(=O)O[C@H](/C(C)=C/C=C/C(=O)N(CC(C)C)CC(C)C)C/C=C/C=C/[C@H](O)[C@H](C)[C@H]1O (some centres unmarked) [Compound 41] | – |
| – | – | – | CC(=O)CC[C@H]1C(=O)N[C@@H](C(C)C)C(=O)N[C@@H](Cc2cccc(O)c2)C(=O)N2CCC[C@H](N2)C(=O)O[C@H](/C(C)=C/CO)C/C=C/C=C/[C@H](O)[C@H](C)[C@H]1O [hydroxymacrocycle, 6, hydroxymacrocycle] | affinity for CyPA (cyclophilin A (CypA); in words, Sedrani et al., 2003): strong affinity |
| – | – | – | CC[C@H]1C[C@H](C)[C@@]2(NC1=O)O[C@@H](C[C@H](O)[C@@H](C)CC/C=C/C=C(\C)[C@@H]1C/C=C/C=C/[C@H](O)[C@H](C)[C@@H](O)[C@@H](CCC(C)=O)C(=O)N[C@@H](C(C)C)C(=O)N[C@@H](Cc3cccc(O)c3)C(=O)N3CCC[C@H](N3)C(=O)O1)[C@H](C)[C@H](O)[C@@H]2C [Sanglifehrin A, 5, Sanglifehrin A, reference compound] | Oral bioavailability F % (in vivo; p.o. 10 or 5 mg/kg vs i.v. 1 mg/kg): 1.4%; SGF + denatured pepsin, % remaining after 1 hour ([1]; 37° C., 1 hour): 49%; SGF + Pepsin, % remaining after 1 hour ([1]; SGF + pepsin, 37° C., 1 hour): 41%; PBS % remaining after 1 hour ([1]; 1 hour): 76%; SGF % remaining after 1 hour ([1]; 1 hour): 52%; affinity for CyPA compared to Cyclosporine A (fold higher) (cyclophilin A (CypA); relative to CsA): approximately 20 fold; inhibition of the phosphatase activity of calcineurin (calcineurin): does not inhibit |
| 5790 | 3090 | 5.5 | CCOC(=O)/C=C/C=C(\C)[C@@H]1C/C=C/C=C/[C@H](O)[C@H](C)[C@@H](O)[C@@H](CCC(C)=O)C(=O)N[C@@H](C(C)C)C(=O)N[C@@H](Cc2cccc(O)c2)C(=O)N2CCCC(N2)C(=O)O1 (some centres unmarked) [Compound 38] | – |
| 1660 | 111 | 0.9 | CCCC(=O)/C=C/C=C(\C)[C@@H]1C/C=C/C=C/[C@H](O)[C@H](C)[C@@H](O)[C@@H](CCC(C)=O)C(=O)N[C@@H](C(C)C)C(=O)N[C@@H](Cc2cccc(O)c2)C(=O)N2CCCC(N2)C(=O)O1 (some centres unmarked) [Compound 39] | – |
| 2500 | – | 0 | CC(=O)CC[C@H]1C(=O)N[C@@H](C(C)C)C(=O)N[C@@H](Cc2cccc(O)c2)C(=O)N2CCCC(N2)C(=O)O[C@H](/C(C)=C/C=C/C(=O)Nc2ccc(-c3ccccc3)cc2)C/C=C/C=C/[C@H](O)[C@H](C)[C@H]1O (some centres unmarked) [Compound 44] | – |
| 14300 | 2200 | 1.6 | CON(C)C(=O)/C=C/C=C(\C)[C@@H]1C/C=C/C=C/[C@H](O)[C@H](C)[C@@H](O)[C@@H](CCC(C)=O)C(=O)N[C@@H](C(C)C)C(=O)N[C@@H](Cc2cccc(O)c2)C(=O)N2CCCC(N2)C(=O)O1 (some centres unmarked) [Compound 33] | half-life at 100 µM ([1]; buffer, pH 7.3): > 1440 min; SGF + Pepsin, % remaining after 1 hour ([1]; pig, simulated gi fluid, 1 h, 100 µM): 25%; half-life at 100 µM ([1]; simulated gi fluid, pH 1.2): 39.6 min |
| 22900 | – | 2.4 | CON(C)C(=O)/C=C/C=C(\C)[C@@H]1C/C=C/C=C/[C@H](O)[C@H](C)[C@@H](O)[C@@H](CCC(C)=O)C(=O)N[C@@H](C(C)C)C(=O)N[C@@H](Cc2cc(O)cc(F)c2)C(=O)N2CCCC(N2)C(=O)O1 (some centres unmarked) [Compound 23] | – |
| 813 | 11.3 | 0.1 | C/C(=C\CO)[C@@H]1C/C=C/C=C/[C@@H]2OC3(C)CC[C@@H](C(=O)N[C@@H](C(C)C)C(=O)N[C@@H](Cc4cccc(O)c4)C(=O)N4CCCC(N4)C(=O)O1)[C@H](O3)[C@H]2C [Compound 35] | – |
| 9800 | 8980 | 9.2 | CC(=O)CC[C@H]1C(=O)N[C@@H](C(C)C)C(=O)N[C@@H](Cc2cccc(O)c2)C(=O)N2CCCC(N2)C(=O)O[C@H](/C(C)=C/C=C/C(=O)N2CCOCC2)C/C=C/C=C/[C@H](O)[C@H](C)[C@H]1O (some centres unmarked) [Compound 43] | – |
| 5500 | – | 1.5 | CON(C)C(=O)/C=C/C=C(\C)[C@@H]1C/C=C/C=C/C=C(\C)[C@@H](O)[C@@H](CCC(C)=O)C(=O)N[C@@H](C(C)C)C(=O)N[C@@H](Cc2cc(O)cc(F)c2)C(=O)N2CCCC(N2)C(=O)O1 (some centres unmarked) [Compound 26] | AUC(0-t) (in vivo; po, whole blood, 5 mg/kg p.o., read-out: AUClast after 5 mg/kg p.o. dose): 421 ng·h/mL |
| – | – | – | CC(=O)CC[C@H]1C(=O)N[C@@H](C(C)C)C(=O)N[C@@H](Cc2cccc(O)c2)C(=O)N2CCCC(N2)C(=O)O[C@H](/C(C)=C/C=C/C(=O)N2CCCCO2)C/C=C/C=C/[C@H](O)[C@H](C)[C@H]1O (some centres unmarked) [Compound 45] | AUC(0-t) (in vivo; [5]): 15100 ng·h/mL; bioavailability (in vivo; [6]): 3.2%; AUC(0-t) (in vivo; [7]): 4840 ng·h/mL; SGF + denatured pepsin, % remaining after 1 hour ([1]; 37° C., 1 hour): 15%; SGF + Pepsin, % remaining after 1 hour ([1]; SGF + pepsin, 37° C., 1 hour): 17%; half-life at 100 µM ([1]; buffer, pH 7.3): > 1440 min; PBS % remaining after 1 hour ([1]; 1 hour): 100%; SGF % remaining after 1 hour ([1]; 1 hour): 13%; half-life at 100 µM ([1]; simulated gi fluid, pH 1.2): < 19.8 min |
| 4910 | 3880 | 7.8 | CC(=O)CC[C@H]1C(=O)N[C@@H](C(C)C)C(=O)N[C@@H](Cc2cccc(O)c2)C(=O)N2CCCC(N2)C(=O)O[C@H](/C(C)=C/C=C/C(=O)OC(C)(C)C)C/C=C/C=C/[C@H](O)[C@H](C)[C@H]1O (some centres unmarked) [Compound 40] | – |
| 4920 | 17.8 | 0.04 | CNC(=O)/C=C/C=C(\C)[C@@H]1C/C=C/C=C/[C@H](O)[C@H](C)[C@@H](O)[C@@H](CCC(C)=O)C(=O)N[C@@H](C(C)C)C(=O)N[C@@H](Cc2cccc(O)c2)C(=O)N2CCCC(N2)C(=O)O1 (some centres unmarked) [Compound 36] | – |
| 14000 | 800 | 0.1 | CCN(CC)C(=O)/C=C/C=C(\C)[C@@H]1C/C=C/C=C/[C@H](O)[C@H](C)[C@@H](O)[C@@H](CCC(C)=O)C(=O)N[C@@H](C(C)C)C(=O)N[C@@H](Cc2cccc(O)c2)C(=O)N2CCCC(N2)C(=O)O1 (some centres unmarked) [Compound 34] | – |
| – | – | – | CC(=O)CC[C@H]1C(=O)N[C@@H](C(C)C)C(=O)N[C@@H](Cc2cccc(O)c2)C(=O)N2CCCC(N2)C(=O)O[C@H](/C(C)=C/C=C/C(=O)Nc2ccccn2)C/C=C/C=C/[C@H](O)[C@H](C)[C@H]1O (some centres unmarked) [Compound 42] | AUC(0-t) (in vivo; [5]): 11700 ng·h/mL; bioavailability (in vivo; [6]): 0.7%; AUC(0-t) (in vivo; [7]): 919 ng·h/mL |
| 1220 | 4.76 | 0.04 | CNC(=O)/C=C/C=C(\C)[C@@H]1C/C=C/C=C/[C@H](O)[C@H](C)[C@@H](O)[C@@H](CCC(C)=O)C(=O)N[C@@H](C(C)C)C(=O)N[C@@H](Cc2cccc(OC)c2)C(=O)N2CCCC(N2)C(=O)O1 (some centres unmarked) [Compound 37] | – |

| Structure (SMILES) | AUC(0-t) (in vivo; [2]) [ng·h/mL] | AUC(0-t) (in vivo; [3]) [ng·h/mL] | bioavailability (in vivo; [4]) [%] | also measured |
| --- | --- | --- | --- | --- |
| CC(=O)CC[C@H]1C(=O)N[C@@H](C(C)C)C(=O)N[C@@H](Cc2cc(O)cc(F)c2)C(=O)N2CCCC(N2)C(=O)O[C@H](/C(C)=C/C=C/C(=O)N2CCCCO2)C/C=C/C=C/[C@H](O)[C@H](C)[C@H]1O (some centres unmarked) [Compound 24] | 45500 | – | 3.6 | SGF + denatured pepsin, % remaining after 1 hour ([1]; 37° C., 1 hour): 30%; SGF + Pepsin, % remaining after 1 hour ([1]; SGF + pepsin, 37° C., 1 hour): 23%; half-life at 100 µM ([1]; phosphate buffered saline (PBS), pH 7.3): > 1440 min; PBS % remaining after 1 hour ([1]; 1 hour): 100%; half-life at 100 µM ([1]; simulated gastric fluid (SGF), pH 1.2): < 19.8 min; SGF % remaining after 1 hour ([1]; 1 hour): 18% |
